The supplement of paper PMC10627819

Assays:
S. aureus DSM 20231 [1] = assay: fitness (endpoint OD595 vs no drug) (fraction); higher = more growth
Procedure, shortened: (§1)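 Growth medium was TSB, LB Lennox or CY, and plates were kept at 37 °C. Inoculation was at OD595 0.01 in 384-well plates, at 30 µl per well or 55 µl for S. pneumoniae. OD595 was monitored every 30 min for 14 h and background-subtracted using the first reading. Fitness is the optical density on entering stationary phase divided by the robust mean of no-drug controls, with values capped at 1.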

S. aureus Newman [2] = assay: as above
Procedure, shortened: as §1

S. pneumoniae D39V [3] = assay: as above
Procedure, shortened: as §1

B. subtilis 168 = assay: Bliss interaction score (quartile over a dose matrix) (fitness difference); higher = more antagonism (negative = synergy)
Procedure, shortened: (§2)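 Fitness was OD595 at entry into stationary phase divided by the plate's robust no-drug mean and capped at 1; single-drug fitness was inferred from combination data. The Bliss score is observed minus expected (product) fitness, summarised by quartiles over technical, biological and donor/recipient replicates.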

S. aureus DSM 20231 [4] = assay: as above
Procedure, shortened: as §2

S. aureus Newman [5] = assay: as above
Procedure, shortened: as §2

S. pneumoniae D39V [6] = assay: as above
Procedure, shortened: as §2
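For Bliss interaction score (quartile over a dose matrix) in this document: first quartile when negative (synergy) and third quartile when positive (antagonism).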

CC1(C)S[C@@H]2[C@H](NC(=O)[C@H](N)c3ccc(O)cc3)C(=O)N2[C@H]1C(=O)O [Amoxicillin] + CCN(CC)CCOC(=O)c1ccc(N)cc1 [Procaine]
fitness
Conditions | partner 85.5 µg/mL | partner 171 µg/mL | partner 342 µg/mL
S. aureus DSM 20231 [1], first compound 0.0625 µg/mL | 0.455 | 0.523 | 0.523
S. aureus DSM 20231 [1], first compound 0.125 µg/mL | 0.423 | 0.478 | 0.495
S. aureus DSM 20231 [1], first compound 0.25 µg/mL | 0.0255 | – | –
S. aureus Newman [2], first compound 0.0625 µg/mL | 0.862 | 0.875 | 0.861
S. aureus Newman [2], first compound 0.125 µg/mL | – | 0.847 | 0.861
S. aureus Newman [2], first compound 0.25 µg/mL | – | 0.841 | 0.811
S. pneumoniae D39V [3], first compound 0.0008 µg/mL | 1 | 0.989 | 0.942
S. pneumoniae D39V [3], first compound 0.0015 µg/mL | 0.985 | 0.971 | 0.987
S. pneumoniae D39V [3], first compound 0.003 µg/mL | 0.918 | 0.93 | 0.992

fitness, one replicate
Conditions | partner 85.5 µg/mL | partner 171 µg/mL | partner 342 µg/mL
S. aureus DSM 20231 [1], first compound 0.5 µg/mL | 0.0288 | 0.0239 | 0.0199
S. pneumoniae D39V [3], first compound 0.006 µg/mL | 0.536 | 0.524 | 0.519

Conditions | Bliss interaction score
B. subtilis 168 | -0.036
S. aureus DSM 20231 [4] | -0.0798
S. aureus Newman [5] | -0.0462
S. pneumoniae D39V [6] | 0.0262

CC1(C)S[C@@H]2[C@H](NC(=O)[C@H](N)c3ccc(O)cc3)C(=O)N2[C@H]1C(=O)O [Amoxicillin] + CC[C@H]1OC(=O)[C@H](C)[C@@H](O[C@H]2C[C@@](C)(OC)[C@@H](O)[C@H](C)O2)[C@H](C)[C@@H](O[C@@H]2O[C@H](C)C[C@H](N(C)C)[C@H]2O)[C@](C)(O)C[C@@H](C)CN(C)[C@H](C)[C@@H](O)[C@]1(C)O [Azithromycin]
fitness
Conditions | first compound 0.0625 µg/mL | first compound 0.125 µg/mL | first compound 0.25 µg/mL
S. aureus DSM 20231 [1], partner 0.125 µg/mL | 0.527 | – | 0.0737
S. aureus DSM 20231 [1], partner 0.25 µg/mL | 0.614 | – | 0.0516
S. aureus DSM 20231 [1], partner 0.5 µg/mL | 0.277 | 0.108 | 0.0273
S. aureus Newman [2], partner 0.125 µg/mL | 0.788 | 0.795 | 0.757
S. aureus Newman [2], partner 0.25 µg/mL | 0.816 | 0.805 | 0.71
S. aureus Newman [2], partner 0.5 µg/mL | 0.681 | – | –

S. aureus DSM 20231 [1], first compound 0.5 µg/mL, one replicate
Conditions | fitness
partner 0.125 µg/mL | 0.0165
partner 0.25 µg/mL | 0.004
partner 0.5 µg/mL | 0.0043

Conditions | Bliss interaction score
B. subtilis 168 | -0.0431
S. aureus DSM 20231 [4] | -0.0724
S. aureus Newman [5] | -0.0697
S. pneumoniae D39V [6] | 0.156

CC1(C)S[C@@H]2[C@H](NC(=O)[C@H](N)c3ccc(O)cc3)C(=O)N2[C@H]1C(=O)O [Amoxicillin] + CN1C2=CC=CC=C2N=C3C1=CC=CC3=O [Pyocyanin]
Conditions | fitness
S. aureus DSM 20231 [1], first compound 0.0625 µg/mL, partner 1.25 µg/mL | 0.673
S. aureus DSM 20231 [1], first compound 0.0625 µg/mL, partner 2.5 µg/mL | 0.635
S. aureus DSM 20231 [1], first compound 0.0625 µg/mL, partner 5 µg/mL | 0.435
S. aureus DSM 20231 [1], first compound 0.125 µg/mL, partner 1.25 µg/mL | 0.418
S. aureus DSM 20231 [1], first compound 0.125 µg/mL, partner 2.5 µg/mL | 0.417
S. aureus DSM 20231 [1], first compound 0.125 µg/mL, partner 5 µg/mL | 0.254
S. aureus DSM 20231 [1], first compound 0.25 µg/mL, partner 1.25 µg/mL | 0.216
S. aureus DSM 20231 [1], first compound 0.25 µg/mL, partner 2.5 µg/mL | 0.195
S. aureus DSM 20231 [1], first compound 0.25 µg/mL, partner 5 µg/mL | 0.121
S. aureus Newman [2], first compound 0.0625 µg/mL, partner 1.25 µg/mL | 0.829
S. aureus Newman [2], first compound 0.0625 µg/mL, partner 2.5 µg/mL | 0.71
S. aureus Newman [2], first compound 0.0625 µg/mL, partner 5 µg/mL | 0.486
S. aureus Newman [2], first compound 0.125 µg/mL, partner 2.5 µg/mL | 0.767
S. aureus Newman [2], first compound 0.125 µg/mL, partner 5 µg/mL | 0.374
S. pneumoniae D39V [3], first compound 0.0008 µg/mL, partner 0.325 µg/mL | 0.992
S. pneumoniae D39V [3], first compound 0.0008 µg/mL, partner 0.65 µg/mL | 0.987
S. pneumoniae D39V [3], first compound 0.0015 µg/mL, partner 0.325 µg/mL | ≥ 1
S. pneumoniae D39V [3], first compound 0.0015 µg/mL, partner 0.65 µg/mL | 0.978
S. pneumoniae D39V [3], first compound 0.0015 µg/mL, partner 1.3 µg/mL | 0.935
S. pneumoniae D39V [3], first compound 0.003 µg/mL, partner 0.325 µg/mL | ≥ 1
S. pneumoniae D39V [3], first compound 0.003 µg/mL, partner 0.65 µg/mL | 0.974
S. pneumoniae D39V [3], first compound 0.003 µg/mL, partner 1.3 µg/mL | 0.945

one replicate
Conditions | fitness
S. aureus DSM 20231 [1], first compound 0.5 µg/mL, partner 1.25 µg/mL | 0.0229
S. aureus DSM 20231 [1], first compound 0.5 µg/mL, partner 2.5 µg/mL | 0.0134
S. aureus DSM 20231 [1], first compound 0.5 µg/mL, partner 5 µg/mL | 0.0115
S. pneumoniae D39V [3], first compound 0.0008 µg/mL, partner 1.3 µg/mL | 0.907
S. pneumoniae D39V [3], first compound 0.006 µg/mL, partner 0.325 µg/mL | 0.624
S. pneumoniae D39V [3], first compound 0.006 µg/mL, partner 0.65 µg/mL | 0.63
S. pneumoniae D39V [3], first compound 0.006 µg/mL, partner 1.3 µg/mL | 0.734

Conditions | Bliss interaction score
B. subtilis 168 | -0.0439
S. aureus DSM 20231 [4] | 0.0915
S. aureus Newman [5] | 0.0587
S. pneumoniae D39V [6] | 0.0791

CC1(C)S[C@@H]2[C@H](NC(=O)[C@H](N)c3ccc(O)cc3)C(=O)N2[C@H]1C(=O)O [Amoxicillin] + CN(N=O)C(=O)N[C@@H](C=O)[C@@H](O)[C@H](O)[C@H](O)CO [Streptozotocin]
fitness
Conditions | first compound 0.0008 µg/mL | first compound 0.0015 µg/mL | first compound 0.003 µg/mL | first compound 0.0625 µg/mL | first compound 0.125 µg/mL | first compound 0.25 µg/mL
S. aureus DSM 20231 [1], partner 0.15 µg/mL | – | – | – | 0.434 | 0.362 | 0.0212
S. aureus DSM 20231 [1], partner 0.3 µg/mL | – | – | – | 0.496 | 0.286 | 0.0296
S. aureus DSM 20231 [1], partner 0.6 µg/mL | – | – | – | 0.41 | 0.234 | 0.0211
S. aureus Newman [2], partner 0.15 µg/mL | – | – | – | 0.769 | 0.736 | 0.753
S. aureus Newman [2], partner 0.3 µg/mL | – | – | – | 0.669 | 0.677 | 0.64
S. aureus Newman [2], partner 0.6 µg/mL | – | – | – | 0.523 | 0.524 | 0.491
S. pneumoniae D39V [3], partner 1.2 µg/mL | 0.935 | 0.866 | 0.844 | – | – | –
S. pneumoniae D39V [3], partner 2.4 µg/mL | 0.963 | 0.945 | 0.929 | – | – | –
S. pneumoniae D39V [3], partner 4.8 µg/mL | 0.928 | 0.877 | 0.812 | – | – | –

fitness, one replicate
Conditions | partner 0.15 µg/mL | partner 0.3 µg/mL | partner 0.6 µg/mL | partner 1.2 µg/mL | partner 2.4 µg/mL | partner 4.8 µg/mL
S. aureus DSM 20231 [1], first compound 0.5 µg/mL | 0.0024 | 0.0025 | 0 | – | – | –
S. pneumoniae D39V [3], first compound 0.006 µg/mL | – | – | – | 0.376 | 0.405 | 0.365

Conditions | Bliss interaction score
B. subtilis 168 | 0.0362
S. aureus DSM 20231 [4] | -0.0844
S. aureus Newman [5] | -0.0299
S. pneumoniae D39V [6] | -0.0885
